Test results published in patent US7498343B2, “Mycobacterial inhibitors” (priority 2002, dated 2009).
In brackets after ≈: the same amount, converted by molar mass. Like-named read-outs stand apart in the source and are kept apart here.

Assays:
[1] = system: Mycobacterium tuberculosis (strain H37RV); assay: In-vitro method for testing compounds against M. tuberculosis (resazurin growth inhibition, MIC); assay type: cell-based; settings: MIC data representing IC90's, 7 days incubation, resazurin fluorescence
M. Smegmatis ATCC607 = assay: In-vitro method for testing compounds for anti-bacterial activity against strain M. smegmatis ATCC607 (Alamar Blue growth inhibition); assay type: cell-based; settings: M. smegmatis ATCC607, pIC50 = -logIC50, IC50 in M, 50% inhibitory concentration for bacterial growth, 48 hours incubation; for IC50: Mycolicibacterium smegmatis, ATCC607, 48 h, read-out: pIC50 (converted)
Method in brief: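 About 250 CFU/well M. smegmatis ATCC607 in Mueller-Hinton broth exposed to five-fold serial compound dilutions, 48 h at 37 °C, humidified 5% CO2. Growth read by Alamar Blue fluorescence (ex 530/em 590 nm) after 2 h further incubation; % growth inhibition calculated.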

[2] = Mycobacterium tuberculosis, H37RV, 168 h, read-out: MIC

Compound | MIC [1] [microgram/ml] | pIC50 (M. Smegmatis ATCC607) | melting point [°C] | MIC [1, 2] [µg/mL] | IC50 (M. Smegmatis ATCC607) [nM]
CCOc1nc2ccc(Br)cc2cc1C(c1ccccc1)C(O)(CCN(C)C)c1ccccc1 (stereo not drawn) [Compound 5] | 0.33 | 7.8 | 162 |  | 
CN(C)CCC(O)(c1ccccc1)C(c1ccccc1)c1cnc2ccc(Br)cc2c1 (stereo not drawn) [Compound 7] | 47.54 | 4.6 | 98 |  | 
CN(C)CCC(O)(c1ccccc1)C(c1ccccc1)c1cnc2ccc(Br)cc2c1 (stereo not drawn) [Compound 8] |  | 5.7 | 180 | 23.8 (≈ 50.1 µM) | 
COc1nc2ccc(Br)cc2cc1C(c1ccccc1)C(O)(CCN)c1ccccc1 (stereo not drawn) [Compound 9] | 37.92 | 4.5 | 204 |  | 
COc1nc2ccc(Br)cc2cc1C(c1ccccc1)C(O)(CC[N+](C)(C)C)c1ccccc1.[I-] (stereo not drawn) [Compound 10] |  |  | 198 | 10.3 | 2510
COc1nc2ccc(Br)cc2cc1C(c1ccccc1)C(O)(CC[N+](C)(C)[O-])c1ccccc1 (stereo not drawn) [Compound 11] |  |  | 208 | 41.4 (≈ 79.4 µM) | 25100
COc1nc2ccc(Br)cc2cc1C(c1ccccc1)C(O)(CCN(C)C)c1cccc(F)c1 (stereo not drawn) [Compound 39] | 8.30 | 6.1 |  |  | 
COc1nc2ccc(Br)cc2cc1C(c1ccccc1)C(O)(CCN)c1ccccc1 (stereo not drawn) [Compound 44] | 6.01 | 5.9 |  |  | 
COc1nc2ccc(Br)cc2cc1C(c1ccccc1)C(O)(CCN1CCCCC1)c1ccccc1 (stereo not drawn) [Compound 47] |  | 6.5 |  | 8.65 (≈ 15.9 µM) | 
COc1nc2ccc(Br)cc2cc1C(c1ccccc1)C(O)(CCN1CCCCC1)c1ccccc1 (stereo not drawn) [Compound 48] | 8.65 | 5.8 |  |  | 
COc1nc2ccc(Br)cc2cc1C(c1ccccc1)C(O)(CCn1ccnc1)c1ccccc1 (stereo not drawn) [Compound 49] |  | 5.4 |  | 52.9 (≈ 100 µM) | 
COc1nc2ccc(Br)cc2cc1C(c1ccccc1)C(O)(CCn1ccnc1)c1ccccc1 (stereo not drawn) [Compound 50] | 52.85 | 5.0 |  |  | 
CNCCC(O)(c1cccc2ccccc12)C(c1ccccc1)c1cc2cc(Br)ccc2nc1OC (stereo not drawn) [Compound 56] |  |  |  | 43 (≈ 79.4 µM) | 63.1
COc1nc2ccc(Br)cc2cc1C(c1ccccc1)C(O)(CCN(C)C)c1cc(F)ccc1F (stereo not drawn) [Compound 67] | 0.34 | 8.6 |  |  | 
COc1nc2ccc(Br)cc2cc1C(c1ccc(C)cc1)C(O)(CCN(C)C)c1cccc2ccccc12 (stereo not drawn) [Compound 71] | 0.14 | 8.5 | 174 |  | 
COc1nc2ccc(Br)cc2cc1C(c1ccc(C)cc1)C(O)(CCN(C)C)c1cccc2ccccc12 (stereo not drawn) [Compound 72] | 3.59 | 6.9 | 178 |  | 
COc1nc2ccc(Br)cc2cc1C(c1ccccc1)C(O)(CC[N+](C)(C)[O-])c1cccc2ccccc12 (stereo not drawn) [Compound 99] |  |  | 218 | 9.06 (≈ 15.9 µM) | 12.6
COc1nc2ccc(Br)cc2cc1C(c1ccccc1)C(O)(CCN(C)C)c1cccc(F)c1 (stereo not drawn) [Compound 109] | 0.33 | 8.2 |  |  | 
COc1nc2ccc(Br)cc2cc1C(c1ccccc1)C(O)(CCN(C)C)c1cc(F)ccc1F (stereo not drawn) [Compound 110] | 0.34 | 8.5 |  |  | 

Compound | MIC [1] [microgram/ml] | pIC50 (M. Smegmatis ATCC607) | melting point [°C] | MIC [1, 2] [µg/mL] | IC50 (M. Smegmatis ATCC607) [nM]
COc1nc2ccc(Br)cc2cc1C(c1ccccc1)C(O)(CCN(C)C)c1cc(F)ccc1F (stereo not drawn) [Compound 111] | 1.71 | 6.4 |  |  | 
COc1nc2ccc(Br)cc2cc1C(c1ccccc1)C(O)(CCN(C)C)c1cccc(F)c1F (stereo not drawn) [Compound 113] | 0.27 | 8.6 | 185 |  | 
COc1nc2ccc(Br)cc2cc1C(c1ccccc1)C(O)(CCN(C)C)c1cccc(F)c1F (stereo not drawn) [Compound 114] | 43.01 | 5.9 | 210 |  | 
COc1nc2ccc(Br)cc2cc1C(c1ccccc1)C(O)(CCN(C)C)c1cc(F)cc(F)c1 (stereo not drawn) [Compound 115] | 0.07 | 8.6 |  |  | 
COc1nc2ccc(Br)cc2cc1C(c1ccccc1)C(O)(CCN(C)C)c1cc(F)cc(F)c1 (stereo not drawn) [Compound 116] | 8.58 | 6.6 |  |  | 
COc1nc2ccc(Br)cc2cc1C(c1ccccc1)C(O)(CCN(C)C)c1cc(F)cc(F)c1 (stereo not drawn) [Compound 117] | 1.71 | 6.7 |  |  | 
COc1nc2ccc(Br)cc2cc1C(c1ccccc1)C(O)(CCN(C)C)c1cc(F)cc(F)c1 (stereo not drawn) [Compound 118] | 0.01 | 9.1 |  |  | 
COc1nc2ccc(Br)cc2cc1C(c1ccccc1)C(O)(CCN1CCCCC1)c1ccc2ccccc2c1 (stereo not drawn) [Compound 129] |  | 4.7 |  | 47.3 (≈ 79.4 µM) | 
CCN(C)CCC(O)(c1ccc2ccccc2c1)C(c1ccccc1)c1cc2cc(Br)ccc2nc1OC (stereo not drawn) [Compound 141] |  | 7.3 |  | 9.03 (≈ 15.9 µM) | 
CCN(C)CCC(O)(c1ccc2ccccc2c1)C(c1ccccc1)c1cc2cc(Br)ccc2nc1OC (stereo not drawn) [Compound 142] | 9.03 | 6.2 |  |  | 
COc1nc2ccc(Br)cc2cc1C(c1ccccc1)C(O)(CCN1CCCCC1)c1cccc2ccccc12 (stereo not drawn) [Compound 145] |  | 5.3 |  | 59.6 (≈ 100 µM) | 
COc1nc2ccc(Br)cc2cc1C(c1ccccc1)C(O)(CCN1CCCCC1)c1cccc2ccccc12 (stereo not drawn) [Compound 146] | 59.56 | 4.8 |  |  | 
CCN(C)CCC(O)(c1cccc2ccccc12)C(c1ccccc1)c1cc2cc(Br)ccc2nc1OC (stereo not drawn) [Compound 147] | 11.36 | 7.4 |  |  | 
CCN(C)CCC(O)(c1cccc2ccccc12)C(c1ccccc1)c1cc2cc(Br)ccc2nc1OC (stereo not drawn) [Compound 148] | 56.96 | 4.9 |  |  | 
COc1nc2ccc(Br)cc2cc1C(c1ccccc1)C(O)(CCN1CCCCC1)c1ccc2cc(Br)ccc2c1 (stereo not drawn) [Compound 155] |  | 4.9 |  | 67.5 (≈ 100 µM) | 
COc1nc2ccc(Br)cc2cc1C(c1ccccc1)C(O)(CCN1CCCCC1)c1ccc2cc(Br)ccc2c1 (stereo not drawn) [Compound 166] | 67.45 | 4.1 |  |  | 
COc1nc2ccc(Br)cc2cc1C(c1ccccc1)C(O)(CCN1CCCC1)c1ccc2ccccc2c1 (stereo not drawn) [Compound 170] |  | 5.6 |  | 46.2 (≈ 79.4 µM) | 
COc1nc2ccc(Br)cc2cc1C(c1ccccc1)C(O)(CCN1CCCC1)c1ccc2ccccc2c1 (stereo not drawn) [Compound 171] | 46.19 | 4.3 |  |  | 
COc1nc2ccc(Br)cc2cc1C(c1ccccc1)C(O)(CCn1cncn1)c1cccc2ccccc12 (stereo not drawn) [Compound 172] |  |  |  | 7.3 (≈ 12.6 µM) | 2000
